Values of other authors, collected in PMC12304352, “Optimization of a GMP-compliant automated one-pot synthesis of Al[^18F]F-NOTA-Ubiquicidin29 − 41 for bacterial infection imaging by PET/CT” (EJNMMI Radiopharmacy and Chemistry, 2025).

Tested on: methicillin-resistant S. aureus (MRSA)
Settings: injected intravenously, ref Brouwer et al. [2006]
Text: Ubiquicidin (UBI), a cationic antimicrobial peptide fragment, has emerged as a promising agent for infection imaging due to its selective binding to anionic bacterial membranes (Ferro-Flores et al. [2016]). […] Another UBI-derived peptide (UBI29 − 41) radiolabeled with technetium-99m, was used as a probe for real-time, whole- ...

UBI31 − 38: synthetic ubiquicidin derivative composed of only eight amino acids (KVDENGKI; Small ribosomal subunit protein eS31; UniProt P62979 107-114, looked up, fragment)
Efficacy against MRSA in a mouse infection model: somewhat reduced activity
